Measurements: US9249129B2, “Morpholino substituted urea derivatives as mTOR inhibitors” (CELLZOME LIMITED, priority 2010, dated 2016)
Read-outs that look alike come from different tables or passages of the source.

Legend:
Assay type in all cases: binding
[1] = target: T1, DNA-dependent protein kinase (DNA-PK) (Homo sapiens, UniProt P78527); assay: kinobeads assay, DNA-PK (dot blot detection)
T1 construct: endogenous in cells; host or cells: Jurkat cells (ATCC TIB-152, clone E6-1), lysate
Description: (§1) The compounds of the present invention as described were tested in the mTOR kinobeads assay as described below. Briefly, test compounds (at various concentrations) and the affinity matrix (1:1 mixture of beads with immobilized phenylthiazole ligand 1 and beads with immobilized phenylmorpholin-chromen ligand; WO 2009/098021) were added to cell lysate aliquots and allowed to bind to the proteins in the lysate sample. After the incubation time the beads with captured proteins were separated from the lysate. Bound proteins were then eluted and the presence of mTOR, PI3K delta (PI3 Kd) and DNA-dependent protein kinase (DNA-PK) was detected and quantified using a specific antibody in a dot blot procedure and the Odyssey infrared detection system. Dose response curves for individual kinases were generated and IC50 values calculated. Kinobeads assays for PI3 kinases (WO-A 2008/015013) and for kinase selectivity profiling (WO 2009/098021) have been previously described.
(§2) The affinity matrix (beads with immobilized phenylmorpholin-chromen ligand) was washed two times with 15 ml of 1×DP buffer containing 0.2% NP40 (IGEPAL® CA-630, Sigma, #13021) and then resupended in 5.5 ml of 1×DP buffer containing 0.2% NP40 (10% beads slurry).
(§3) 5×DP buffer: 250 mM Tris-HCl pH 7.4, 25% Glycerol, 7.5 mM MgCl2, 750 mM NaCl, 5 mM Na3VO4, filter the 5×-lysis buffer through 0.22 μm filter and store in aliquots at −80° C. The 5×DP buffer is diluted to 1×DP buffer containing 1 mM DTT and 25 mM NaF.
(§4) Stock solutions of test compounds were prepared in DMSO. In a 96 well plate 30 μl solution of diluted test compounds at 5 mM in DMSO were prepared. Starting with this solution a 1:3 dilution series (9 steps) was prepared. For control experiments (no test compound) a buffer containing 2% DMSO was used. Compound CZC00018052 served as a positive control (PI-103; Calbiochem catalogue number 528100).
(§5) Jurkat cells (ATCC catalogue number TIB-152 Jurkat, clone E6-1) were grown in 1 litre Spinner flasks (Integra Biosciences, #182101) in suspension in RPMI 1640 medium (Invitrogen, #21875-034) supplemented with 10% Fetal Bovine Serum (Invitrogen) at a density between 0.15×10^6 and 1.2×10^6 cells/ml. Cells were harvested by centrifugation, washed once with 1×PBS buffer (Invitrogen, #14190-094) and cell pellets were frozen in liquid nitrogen and subsequently stored at −80° C.
(§6) Jurkat cells were homogenized in a Potter S homogenizer in lysis buffer: 50 mM Tris-HCl, 0.8% NP40, 5% glycerol, 150 mM NaCl, 1.5 mM MgCl2, 25 mM NaF, 1 mM sodium vanadate, 1 mM DTT, pH 7.5. One complete EDTA-free tablet (protease inhibitor cocktail, Roche Diagnostics, 1873580) per 25 ml buffer was added. The material was dounced 10 times using a mechanized POTTER S, transferred to 50 ml falcon tubes, incubated for 30 minutes on ice and spun down for 10 min at 20,000 g at 4° C. (10,000 rpm in Sorvall SLA600, precooled). The supernatant was transferred to an ultracentrifuge (UZ)-polycarbonate tube (Beckmann, 355654) and spun for 1 hour at 100.000 g at 4° C. (33.500 rpm in Ti50.2, precooled). The supernatant was transferred again to a fresh 50 ml falcon tube, the protein concentration was determined by a Bradford assay (BioRad) and samples containing 50 mg of protein per aliquot were prepared. The samples were immediately used for experiments or frozen in liquid nitrogen and stored frozen at −80° C.
(§7) Jurkat cell lysate (approximately 50 mg protein per plate) was thawed in a water bath at room temperature and then kept on ice. To the thawed cell lysate 1×DP 0.8% NP40 buffer containing protease inhibitors (1 tablet for 25 ml buffer; EDTA-free protease inhibitor cocktail; Roche Diagnostics 1873580) was added in order to reach a final protein concentration of 5 mg/ml total protein. The diluted cell lysate was stored on ice. […]

[2] = target: T2, PI3K delta (PI3Kd) (Homo sapiens, UniProt O00329); assay: kinobeads assay, PI3K delta (dot blot detection)
T2 construct: endogenous in cells; host or cells: Jurkat cells (ATCC TIB-152, clone E6-1), lysate
Description: as §1, §2, §3, §4, §5, §6, §7

[3] = target: T3, mTOR (Homo sapiens, UniProt P42345); assay: mTOR kinobeads assay (dot blot detection)
T3 construct: endogenous in cells; host or cells: Jurkat cells (ATCC TIB-152, clone E6-1), lysate
Description: as §1, §2, §3, §4, §5, §6, §7

[4] = Table 2, Jurkat cell lysate, read-out: Inhibition values (IC50) DNAPK
[5] = Table 4, read-out: Inhibition values (IC50) DNAPK
[6] = Table 2, Jurkat cell lysate, read-out: Inhibition values (IC50) PI3Kd
[7] = Table 4, read-out: Inhibition values (IC50) PI3Kd
[8] = Table 2, Jurkat cell lysate, read-out: Inhibition values (IC50) mTor
[9] = Table 4, read-out: Inhibition values (IC50) mTOR

T1 sequence (P78527 whole entry): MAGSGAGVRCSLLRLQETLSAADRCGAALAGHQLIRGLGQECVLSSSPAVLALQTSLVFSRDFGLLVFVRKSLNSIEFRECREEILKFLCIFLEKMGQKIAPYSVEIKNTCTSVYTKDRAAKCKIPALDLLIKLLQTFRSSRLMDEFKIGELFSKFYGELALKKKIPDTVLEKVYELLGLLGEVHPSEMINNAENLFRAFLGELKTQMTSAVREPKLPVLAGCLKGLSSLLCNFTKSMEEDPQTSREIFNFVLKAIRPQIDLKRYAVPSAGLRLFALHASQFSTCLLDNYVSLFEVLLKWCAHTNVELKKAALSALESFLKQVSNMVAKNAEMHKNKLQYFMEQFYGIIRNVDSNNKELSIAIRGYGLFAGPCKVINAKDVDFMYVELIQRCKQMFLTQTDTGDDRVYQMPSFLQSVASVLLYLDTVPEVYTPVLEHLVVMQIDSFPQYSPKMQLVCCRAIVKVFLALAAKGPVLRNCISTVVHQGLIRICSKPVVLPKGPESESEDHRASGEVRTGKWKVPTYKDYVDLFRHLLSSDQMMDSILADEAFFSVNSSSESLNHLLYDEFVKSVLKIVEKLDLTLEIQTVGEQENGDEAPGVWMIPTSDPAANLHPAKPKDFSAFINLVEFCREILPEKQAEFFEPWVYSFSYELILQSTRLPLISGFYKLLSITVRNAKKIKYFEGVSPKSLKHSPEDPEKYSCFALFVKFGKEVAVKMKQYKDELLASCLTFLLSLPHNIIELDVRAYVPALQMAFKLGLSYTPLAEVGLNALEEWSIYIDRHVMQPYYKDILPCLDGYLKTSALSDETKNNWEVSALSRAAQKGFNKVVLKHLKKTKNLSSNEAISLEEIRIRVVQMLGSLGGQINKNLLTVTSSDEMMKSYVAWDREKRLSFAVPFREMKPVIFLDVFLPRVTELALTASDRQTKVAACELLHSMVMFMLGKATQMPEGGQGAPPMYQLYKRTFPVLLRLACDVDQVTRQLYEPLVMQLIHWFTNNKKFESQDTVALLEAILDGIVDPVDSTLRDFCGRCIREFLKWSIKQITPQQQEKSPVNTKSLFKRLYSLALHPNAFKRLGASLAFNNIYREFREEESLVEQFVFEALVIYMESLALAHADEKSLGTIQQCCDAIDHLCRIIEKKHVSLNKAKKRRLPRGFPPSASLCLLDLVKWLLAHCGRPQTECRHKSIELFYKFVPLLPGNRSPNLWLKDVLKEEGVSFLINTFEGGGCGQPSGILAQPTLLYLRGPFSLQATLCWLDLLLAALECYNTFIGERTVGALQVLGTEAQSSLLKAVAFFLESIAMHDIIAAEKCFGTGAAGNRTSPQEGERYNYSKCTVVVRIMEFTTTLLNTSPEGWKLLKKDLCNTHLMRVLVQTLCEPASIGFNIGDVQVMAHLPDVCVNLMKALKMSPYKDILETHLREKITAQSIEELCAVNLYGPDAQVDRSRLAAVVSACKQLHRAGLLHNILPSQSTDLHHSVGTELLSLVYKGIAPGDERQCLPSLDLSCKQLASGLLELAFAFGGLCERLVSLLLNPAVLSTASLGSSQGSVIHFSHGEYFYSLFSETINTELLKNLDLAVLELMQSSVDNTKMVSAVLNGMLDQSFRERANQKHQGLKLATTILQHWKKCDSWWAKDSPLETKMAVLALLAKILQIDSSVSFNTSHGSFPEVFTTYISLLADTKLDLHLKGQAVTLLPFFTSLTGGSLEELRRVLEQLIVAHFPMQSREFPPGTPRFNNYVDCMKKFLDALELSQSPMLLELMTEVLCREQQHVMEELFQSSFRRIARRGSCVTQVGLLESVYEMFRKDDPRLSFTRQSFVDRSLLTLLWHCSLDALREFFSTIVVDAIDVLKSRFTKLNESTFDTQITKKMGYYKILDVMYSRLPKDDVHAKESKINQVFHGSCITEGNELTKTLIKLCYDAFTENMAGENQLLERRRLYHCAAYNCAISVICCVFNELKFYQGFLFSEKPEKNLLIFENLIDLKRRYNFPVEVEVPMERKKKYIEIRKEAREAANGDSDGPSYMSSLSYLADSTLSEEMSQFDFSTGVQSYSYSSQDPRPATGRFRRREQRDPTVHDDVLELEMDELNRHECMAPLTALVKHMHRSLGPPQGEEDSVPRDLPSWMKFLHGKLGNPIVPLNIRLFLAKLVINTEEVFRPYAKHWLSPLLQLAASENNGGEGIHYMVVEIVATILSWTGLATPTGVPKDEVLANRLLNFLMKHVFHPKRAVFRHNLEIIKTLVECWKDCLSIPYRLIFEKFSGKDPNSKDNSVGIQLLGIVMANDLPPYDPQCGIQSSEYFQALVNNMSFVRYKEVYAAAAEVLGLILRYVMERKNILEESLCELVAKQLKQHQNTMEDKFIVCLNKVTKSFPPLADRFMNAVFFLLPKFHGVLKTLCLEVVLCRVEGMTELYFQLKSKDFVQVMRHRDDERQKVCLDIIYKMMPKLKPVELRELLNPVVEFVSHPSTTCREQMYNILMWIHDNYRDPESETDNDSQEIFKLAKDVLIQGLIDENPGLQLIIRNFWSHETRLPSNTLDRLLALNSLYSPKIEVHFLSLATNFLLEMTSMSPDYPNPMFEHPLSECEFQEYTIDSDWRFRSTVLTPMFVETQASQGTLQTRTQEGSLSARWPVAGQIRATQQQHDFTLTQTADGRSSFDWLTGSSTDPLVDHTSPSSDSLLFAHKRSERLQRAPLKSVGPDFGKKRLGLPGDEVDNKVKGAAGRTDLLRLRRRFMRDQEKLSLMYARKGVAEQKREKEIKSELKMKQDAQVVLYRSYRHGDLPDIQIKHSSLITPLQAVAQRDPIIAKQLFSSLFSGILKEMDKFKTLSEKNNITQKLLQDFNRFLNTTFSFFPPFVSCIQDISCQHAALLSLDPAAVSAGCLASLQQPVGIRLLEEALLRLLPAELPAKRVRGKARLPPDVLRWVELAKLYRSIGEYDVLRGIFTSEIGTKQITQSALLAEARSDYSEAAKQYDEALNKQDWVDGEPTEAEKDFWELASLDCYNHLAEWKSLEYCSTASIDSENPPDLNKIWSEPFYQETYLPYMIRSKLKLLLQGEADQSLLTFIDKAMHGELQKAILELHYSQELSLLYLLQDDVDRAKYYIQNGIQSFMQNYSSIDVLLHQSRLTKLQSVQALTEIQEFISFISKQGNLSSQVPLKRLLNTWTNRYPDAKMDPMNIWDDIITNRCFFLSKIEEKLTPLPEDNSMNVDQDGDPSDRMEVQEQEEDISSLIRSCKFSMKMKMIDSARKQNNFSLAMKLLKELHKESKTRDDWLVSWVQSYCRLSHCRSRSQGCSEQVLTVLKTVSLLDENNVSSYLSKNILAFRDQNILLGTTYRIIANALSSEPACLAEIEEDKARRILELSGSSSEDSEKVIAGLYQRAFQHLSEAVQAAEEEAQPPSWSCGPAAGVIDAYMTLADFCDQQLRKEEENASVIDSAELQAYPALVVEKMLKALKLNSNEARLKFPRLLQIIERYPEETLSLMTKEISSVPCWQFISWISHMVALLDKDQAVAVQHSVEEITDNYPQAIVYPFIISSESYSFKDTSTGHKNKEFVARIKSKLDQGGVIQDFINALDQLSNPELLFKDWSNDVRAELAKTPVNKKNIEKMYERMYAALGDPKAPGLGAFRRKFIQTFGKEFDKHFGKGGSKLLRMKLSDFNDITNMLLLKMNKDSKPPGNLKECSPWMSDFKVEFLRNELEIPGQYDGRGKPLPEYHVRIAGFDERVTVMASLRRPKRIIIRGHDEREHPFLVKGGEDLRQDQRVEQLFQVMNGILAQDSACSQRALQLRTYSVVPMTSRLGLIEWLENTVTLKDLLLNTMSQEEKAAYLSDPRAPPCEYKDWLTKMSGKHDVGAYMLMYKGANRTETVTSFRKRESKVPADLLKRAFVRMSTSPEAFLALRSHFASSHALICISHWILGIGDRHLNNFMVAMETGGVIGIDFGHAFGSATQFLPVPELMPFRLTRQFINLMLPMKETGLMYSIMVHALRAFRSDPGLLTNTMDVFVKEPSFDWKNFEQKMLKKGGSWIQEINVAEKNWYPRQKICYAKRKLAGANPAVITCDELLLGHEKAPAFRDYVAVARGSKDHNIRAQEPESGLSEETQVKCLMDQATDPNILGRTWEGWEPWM

Compound: O=C(Nc1ccc(-c2cc(-c3cccnc3)nc(N3CCOCC3)n2)cc1)NC1CC1 [Example 1, 1-cyclopropyl-3-(4-(2-morpholino-6-(pyridin-3-yl)pyrimidin-4-yl)phenyl)urea]
- IC50 [1, 4]: ≥ 10 µM
- IC50 [1, 5]: ≥ 10 µM
- IC50 [2, 6]: ≥ 10 µM
- IC50 [2, 7]: ≥ 10 µM
- IC50 [3, 8]: 1 to 10 µM
- IC50 [3, 9]: 1 to 10 µM

Compound: C[C@H]1COCCN1c1cc(-c2cccc(S(C)(=O)=O)c2)nc(-c2ccc(NC(=O)NC3CC3)cc2)n1 [Example 5, (S)-1-cyclopropyl-3-(4-(4-(3-methylmorpholino)-6-(3-(methylsulfonyl)phenyl)pyrimidin-2-yl)phenyl)urea]
- IC50 [1, 4]: ≥ 10 µM
- IC50 [1, 5]: ≥ 10 µM
- IC50 [2, 6]: ≥ 10 µM
- IC50 [2, 7]: ≥ 10 µM
- IC50 [3, 8]: 1 to 10 µM
- IC50 [3, 9]: 1 to 10 µM

Compound: CCNC(=O)Nc1ccc(-c2cc(-c3ccccc3NS(C)(=O)=O)nc(N3CCOC[C@@H]3C)n2)cc1 [Example 9, (S)—N-(2-(6-(4-(3-ethylureido)phenyl)-2-(3-methylmorpholino)pyrimidin-4-yl)phenyl)methanesulfonamide]
- IC50 [1, 4]: ≥ 10 µM
- IC50 [1, 5]: ≥ 10 µM
- IC50 [2, 6]: ≥ 10 µM
- IC50 [2, 7]: ≥ 10 µM
- IC50 [3, 8]: 1 to 10 µM
- IC50 [3, 9]: 1 to 10 µM

Compound: CCNC(=O)Nc1ccc(-c2cc(-c3ccccc3NC(C)=O)nc(N3CCOC[C@@H]3C)n2)cc1 [Example 10, (S)—N-(2-(6-(4-(3-ethylureido)phenyl)-2-(3-methylmorpholino)pyrimidin-4-yl)phenyl)acetamide]
- IC50 [1, 4]: ≥ 10 µM
- IC50 [1, 5]: ≥ 10 µM
- IC50 [2, 6]: ≥ 10 µM
- IC50 [2, 7]: ≥ 10 µM
- IC50 [3, 8]: 1 to 10 µM
- IC50 [3, 9]: 1 to 10 µM

Compound: CCNC(=O)Nc1ccc(-c2cc(-c3ccccc3C(=O)O)nc(N3CCOC[C@@H]3C)n2)cc1 [Example 11, (S)-2-(6-(4-(3-ethylureido)phenyl)-2-(3-methylmorpholino)pyrimidin-4-yl)benzoic acid]
- IC50 [1, 4]: ≥ 10 µM
- IC50 [1, 5]: ≥ 10 µM
- IC50 [2, 6]: ≥ 10 µM
- IC50 [2, 7]: ≥ 10 µM
- IC50 [3, 8]: 1 to 10 µM
- IC50 [3, 9]: 1 to 10 µM

Compound: CCNC(=O)Nc1ccc(-c2cc(-c3ccccc3C(N)=O)nc(N3CCOC[C@@H]3C)n2)cc1 [Example 12, (S)-2-(6-(4-(3-ethylureido)phenyl)-2-(3-methylmorpholino)pyrimidin-4-yl)benzamide]
- IC50 [1, 4]: ≥ 10 µM
- IC50 [1, 5]: ≥ 10 µM
- IC50 [2, 6]: ≥ 10 µM
- IC50 [2, 7]: ≥ 10 µM
- IC50 [3, 8]: 1 to 10 µM
- IC50 [3, 9]: 1 to 10 µM

Compound: CCNC(=O)Nc1ccc(-c2cc(-c3ccncc3)nc(N3CCOC[C@@H]3C)n2)cc1 [Example 13, (S)-1-ethyl-3-(4-(2-(3-methylmorpholino)-6-(pyridin-4-yl)pyrimidin-4-yl)phenyl)urea]
- IC50 [1, 4]: ≥ 10 µM
- IC50 [1, 5]: ≥ 10 µM
- IC50 [2, 6]: ≥ 10 µM
- IC50 [2, 7]: ≥ 10 µM
- IC50 [3, 8]: 1 to 10 µM
- IC50 [3, 9]: 1 to 10 µM

Compound: CCNC(=O)Nc1ccc(-c2cc(-c3ccccc3CO)nc(N3CCOC[C@@H]3C)n2)cc1 [Example 16, (S)-1-ethyl-3-(4-(6-(2-(hydroxymethyl)phenyl)-2-(3-methylmorpholino)pyrimidin-4-yl)phenyl)urea]
- IC50 [1, 4]: ≥ 10 µM
- IC50 [1, 5]: ≥ 10 µM
- IC50 [2, 6]: ≥ 10 µM
- IC50 [2, 7]: ≥ 10 µM
- IC50 [3, 8]: 1 to 10 µM
- IC50 [3, 9]: 1 to 10 µM

Compound: CCNC(=O)Nc1ccc(-c2cc(-c3cc[nH]n3)nc(N3CCOC[C@@H]3C)n2)cc1 [Example 18, (S)-1-ethyl-3-(4-(2-(3-methylmorpholino)-6-(1H-pyrazol-3-yl)pyrimidin-4-yl)phenyl)urea]
- IC50 [1, 4]: ≥ 10 µM
- IC50 [1, 5]: ≥ 10 µM
- IC50 [2, 6]: ≥ 10 µM
- IC50 [2, 7]: ≥ 10 µM
- IC50 [3, 8]: 1 to 10 µM
- IC50 [3, 9]: 1 to 10 µM

Compound: CCNC(=O)Nc1ccc(-c2cc(-c3ccccc3S(=O)(=O)NC)nc(N3CCOCC3)n2)cc1 [Example 19, 2-(6-(4-(3-ethylureido)phenyl)-2-morpholinopyrimidin-4-yl)-N-methylbenzenesulfonamide]
- IC50 [1, 4]: ≥ 10 µM
- IC50 [1, 5]: ≥ 10 µM
- IC50 [2, 6]: ≥ 10 µM
- IC50 [2, 7]: ≥ 10 µM
- IC50 [3, 8]: 1 to 10 µM
- IC50 [3, 9]: 1 to 10 µM
